Legend:
Experiment in all cases: relative viability (nuclei count vs DMSO), 5 days (fraction); higher = more cells survive
Kobe2602 + OSI-027 = compound: C1=CC(=CC=C1NC(=S)NNC2=C(C=C(C=C2[N+](=O)[O-])C(F)(F)F)[N+](=O)[O-])F [Kobe2602] + COc1cccc2cc(-c3nc([C@H]4CC[C@H](C(=O)O)CC4)n4ncnc(N)c34)[nH]c12 [OSI-027] (partner 0.5 µM)
How it was run: (§1)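 Lung cancer cell lines were seeded in 1536-well plates and dosed by pin tool the next day, with either a single drug or a fixed anchor-drug dose combined with five library-drug doses (not always all listed) spaced in √10 steps. Five days later, one step fixed the cells and stained their nuclei (final 0.05% Triton X-100, 1% formaldehyde, 1 ug/ml Hoechst), and nuclei were counted on 4× images. Relative viability is the nuclei count in treated wells divided by the count in vehicle wells, and each value is the median of duplicate plates.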

Kobe2602 + Decitabine = compound: C1=CC(=CC=C1NC(=S)NNC2=C(C=C(C=C2[N+](=O)[O-])C(F)(F)F)[N+](=O)[O-])F [Kobe2602] + Nc1ncn([C@H]2C[C@H](O)[C@@H](CO)O2)c(=O)n1 [Decitabine] (partner 2 µM)
How it was run: as §1

[1] = compound: COc1cc2nccc(Oc3ccc(NC(=O)C4(C(=O)Nc5ccc(F)cc5)CC4)cc3)c2cc1OC [Cabozantinib] + Nc1ncn([C@H]2C[C@H](O)[C@@H](CO)O2)c(=O)n1 [Decitabine] (partner 2 µM)
How it was run: as §1

Zosuquidar + Foretinib = compound: O[C@@H](COc1cccc2ncccc12)CN1CCN([C@@H]2c3ccccc3[C@@H]3[C@H](c4ccccc42)C3(F)F)CC1 [Zosuquidar] + COc1cc2c(Oc3ccc(NC(=O)C4(C(=O)Nc5ccc(F)cc5)CC4)cc3F)ccnc2cc1OCCCN1CCOCC1 [Foretinib] (partner 0.25 µM)
How it was run: as §1

| Cell Line | relative viability (Kobe2602 + OSI-027; first compound 0.2 µM) | relative viability (Kobe2602 + OSI-027; first compound 0.6325 µM) | relative viability (Kobe2602 + OSI-027; first compound 2 µM) | relative viability (Kobe2602 + OSI-027; first compound 6.325 µM) | relative viability (Kobe2602 + OSI-027; first compound 20 µM) | relative viability (Kobe2602 + Decitabine; first compound 0.2 µM) | relative viability (Kobe2602 + Decitabine; first compound 0.6325 µM) | relative viability (Kobe2602 + Decitabine; first compound 2 µM) | relative viability (Kobe2602 + Decitabine; first compound 6.325 µM) | relative viability (Kobe2602 + Decitabine; first compound 20 µM) | relative viability ([1]; first compound 0.02 µM) | relative viability ([1]; first compound 0.06325 µM) | relative viability ([1]; first compound 0.2 µM) | relative viability ([1]; first compound 0.6325 µM) | relative viability ([1]; first compound 2 µM) | relative viability (Zosuquidar + Foretinib; first compound 0.01 µM) | relative viability (Zosuquidar + Foretinib; first compound 0.03162 µM) | relative viability (Zosuquidar + Foretinib; first compound 0.1 µM) | relative viability (Zosuquidar + Foretinib; first compound 0.3162 µM) | relative viability (Zosuquidar + Foretinib; first compound 1 µM) |
| --- | --- | --- | --- | --- | --- | --- | --- | --- | --- | --- | --- | --- | --- | --- | --- | --- | --- | --- | --- | --- |
| NCI-H1651 | 0.604 | 0.663 | 0.674 | 0.618 | 0.652 | 0.588 | 0.481 | 0.71 | 0.578 | 0.936 | 0.465 | 0.743 | 0.565 | 0.616 | 0.599 | 0.763 | 0.845 | 0.703 | 0.863 | 0.778 |
| NCI-H1666 | 0.879 | 0.831 | 0.851 | 0.928 | 0.789 | 0.725 | 0.693 | 0.69 | 0.724 | 0.812 | 0.649 | 0.754 | 0.712 | 0.711 | 0.752 | 0.946 | 1.01 | 0.976 | 1.02 | 0.942 |
| NCI-H1734 | 0.657 | 0.68 | 0.619 | 0.588 | 0.745 | 0.49 | 0.539 | 0.497 | 0.48 | 0.481 | 0.545 | 0.53 | 0.523 | 0.508 | 0.53 | 0.816 | 0.868 | 0.775 | 0.938 | 0.817 |
| NCI-H1755 | 0.748 | 0.726 | 0.685 | 0.705 | 0.747 | 0.711 | 0.692 | 0.738 | 0.698 | 0.764 | 0.729 | 0.73 | 0.757 | 0.717 | 0.742 | 0.908 | 0.894 | 0.841 | 0.959 | 0.932 |
| NCI-H1793 | 0.252 | 0.218 | 0.238 | 0.275 | 0.327 | 0.482 | 0.485 | 0.656 | 0.664 | 0.472 | 0.4 | 0.555 |  | 0.469 | 0.489 | 0.747 | 0.914 |  | 0.896 | 0.641 |
| NCI-H1915 | 0.596 | 0.71 | 0.612 | 0.656 | 0.643 | 0.247 | 0.263 | 0.256 | 0.265 | 0.269 | 0.262 | 0.264 | 0.253 | 0.248 | 0.256 | 0.951 | 1.11 | 1.07 | 1.12 | 1.13 |
| NCI-H1944 | 0.453 | 0.48 | 0.391 | 0.416 | 0.464 | 0.502 | 0.452 | 0.46 | 0.439 | 0.48 | 0.477 | 0.483 | 0.42 | 0.481 | 0.466 | 0.774 | 0.862 | 0.898 | 0.883 | 0.824 |
| NCI-H1975 | 0.673 | 0.79 | 0.687 | 0.676 | 0.669 | 0.402 | 0.427 | 0.419 | 0.379 | 0.4 | 0.406 | 0.399 | 0.412 | 0.418 | 0.327 | 0.959 | 0.832 | 1.02 | 0.952 | 1.02 |
| NCI-H1993 | 0.552 | 0.511 | 0.544 | 0.569 | 0.597 | 0.598 | 0.583 | 0.537 | 0.535 | 0.593 | 0.71 | 0.681 | 0.519 | 0.576 | 0.458 | 0.758 | 0.724 | 0.701 | 0.81 | 0.673 |
| NCI-H2009 | 0.568 | 0.737 | 0.591 | 0.637 | 0.452 | 0.358 | 0.414 | 0.405 | 0.394 | 0.372 | 0.305 | 0.384 | 0.447 | 0.394 | 0.405 | 1.24 | 1.2 | 1.24 | 1.2 | 1.23 |
| NCI-H2023 | 0.394 | 0.387 | 0.346 | 0.345 | 0.278 | 0.232 | 0.218 | 0.207 | 0.199 | 0.196 | 0.261 | 0.235 | 0.239 | 0.234 | 0.24 | 0.936 | 0.759 | 0.689 | 0.998 | 0.99 |
| NCI-H2085 | 0.685 | 0.898 |  | 0.677 | 0.799 | 0.549 | 0.549 | 0.568 | 0.552 | 0.616 | 0.583 | 0.549 | 0.58 | 0.626 | 0.642 | 0.855 | 1.02 | 0.837 | 1.01 | 0.981 |
| NCI-H2087 | 0.695 | 0.544 | 0.501 | 0.574 | 0.652 | 0.313 | 0.271 | 0.27 | 0.281 | 0.309 | 0.311 | 0.279 | 0.303 | 0.306 | 0.212 | 1 |  | 0.992 | 1.21 | 1.12 |
| NCI-H2126 | 0.715 | 0.778 | 0.675 | 0.678 | 0.701 | 0.675 | 0.576 | 0.551 | 0.619 | 0.577 | 0.531 | 0.546 | 0.618 | 0.643 | 0.59 | 1.17 | 1.09 |  | 1.18 | 1.23 |
| NCI-H2170 | 0.736 | 0.755 | 0.7 | 0.658 | 0.791 | 0.492 | 0.455 | 0.481 | 0.449 | 0.478 | 0.436 | 0.465 | 0.446 | 0.487 | 0.458 | 0.979 | 1.02 | 0.993 | 1.02 | 1.02 |
| NCI-H2342 | 0.762 | 0.546 | 0.614 | 0.63 | 0.632 | 0.846 | 0.749 | 0.68 | 0.658 | 0.728 | 0.642 | 0.832 | 0.765 | 0.788 | 0.544 | 1.1 | 1.18 | 0.878 | 1 | 1.06 |
| NCI-H2347 | 0.425 | 0.495 | 0.403 | 0.278 | 0.571 | 0.648 | 0.618 | 0.594 | 0.569 | 0.661 | 0.66 | 0.667 | 0.601 | 0.609 | 0.516 | 1.01 | 1.06 | 0.556 | 0.978 | 0.869 |
| NCI-H2405 | 0.609 | 0.616 | 0.619 | 0.727 | 0.719 | 0.737 | 0.749 | 0.732 | 0.745 | 0.806 | 0.725 | 0.788 | 0.77 | 0.752 | 0.764 | 1.05 | 1.06 | 0.946 | 1.05 | 1.04 |
| NCI-H3122 | 0.902 | 0.903 | 0.957 | 0.853 | 1.12 | 0.46 | 0.496 | 0.471 | 0.402 | 0.391 | 0.394 | 0.413 | 0.422 | 0.411 | 0.467 | 0.891 | 0.922 | 0.909 | 0.934 | 0.955 |
| PC-3 [JPC-3] | 0.715 | 0.736 | 0.74 | 0.784 | 0.759 | 0.856 | 0.895 | 0.84 | 0.754 | 0.787 | 0.782 | 0.886 |  | 0.872 | 0.797 | 1.11 | 1.02 | 0.984 | 1.09 | 1.1 |
| PC-14 | 0.836 | 0.887 | 0.87 | 0.792 | 0.339 | 0.224 | 0.201 | 0.235 | 0.234 | 0.247 | 0.237 | 0.203 |  | 0.219 | 0.249 | 0.99 | 0.983 | 0.952 | 0.997 | 0.952 |
| RERF-LC-KJ | 0.615 | 0.485 | 0.555 | 0.481 | 0.257 | 0.648 | 0.69 | 0.576 | 0.591 | 0.37 | 0.717 | 0.735 | 0.649 | 0.666 | 0.746 | 0.895 | 0.926 | 0.861 | 0.923 | 0.844 |
| SK-LU-1 | 0.329 | 0.365 | 0.359 | 0.327 | 0.371 | 0.672 | 0.702 | 0.631 | 0.581 | 0.64 | 0.583 | 0.698 | 0.668 | 0.631 | 0.627 | 0.799 | 0.871 | 0.937 | 0.961 | 0.77 |
| SK-MES-1 | 0.591 | 0.637 | 0.488 | 0.642 | 0.226 | 0.411 | 0.378 | 0.335 | 0.396 | 0.321 | 0.449 | 0.412 | 0.373 | 0.431 | 0.399 | 0.891 | 0.872 | 0.879 | 1.05 | 0.94 |
| SW 900 | 0.712 | 0.477 | 0.499 | 0.374 | 0.488 | 0.559 | 0.454 | 0.411 | 0.452 | 0.387 | 0.44 | 0.508 | 0.412 | 0.475 | 0.556 | 0.761 | 0.86 | 0.819 | 0.952 | 0.854 |
| SW 1573 | 0.722 | 0.535 | 0.531 | 0.62 | 0.303 | 0.483 | 0.614 | 0.453 | 0.493 | 0.318 | 0.476 | 0.573 | 0.519 | 0.536 | 0.416 | 0.976 | 0.888 | 1.07 | 1.05 | 0.879 |

— the supplement of paper PMC10307832
